In patent publication US20210010031A1, “LENTIVIRAL VECTORS FOR HIGH-TITER TRANSDUCTION OF PRIMARY HUMAN CELLS” (priority 2018, published 2021):

Tests used:
HA-tagged FAM208A = HA-tagged FAM208A (Homo sapiens, UniProt Q9UK61); assay: Co-immunoprecipitation of HA-FAM208A with FLAG-Vpx in HEK293 cells; type: binding; details: versus untreated cells with wild-type SIVMAC251 Vpx (FIG. 17H)
Source text: Degradation of SAMHD1 requires direct interaction with Vpx or Vpr. To determine if Vpx similarly associates with proteins of the HUSH complex, HA-tagged FAM208A was co-transfected into HEK293 cells with FLAG-tagged SIVMAC251 Vpx or SIVRCM02CM8081 Vpx. When anti-FLAG antibody was used to immunoprecipitate either of the two Vpx proteins from the soluble cell lysate, HA-FAM208A was detected in the immunoprecipitate (FIG. 17H). The strength of the FAM208A signal in the Vpx pull-out increased when the co-transfected HEK293 cells were incubated with the proteasome inhibitor PR171, or when wild-type SIVMAC251 Vpx was replaced in the transfection by a mutant (Q76A) that is incapable of binding DCAF1 (FIG. 17H and FIGS. 21D and 21E).
Cells were washed in PBS, counted, normalized for cell number, and lysed directly in 1×SDS-PAGE sample buffer. Samples were run on NuPage 4-12% Bis-Tris gels followed by blotting onto nitrocellulose membranes. Primary antibodies used: FAM208A (Atlas, HPA00875), MPHOSPH8 (Proteintech, 16796-1-AP), PPHLN1 (Sigma, HPA038902), SETDB1 (Proteintech 11231-1-AP), DCAF1 (Proteintech, 11612-1-AP), FLAG (Novus, NB600-345), FLAG (Sigma, F1804, used for IP), and HA (Biolegend, 901501).

Jurkat LTR-gfp cells = assay: HIV-1 LTR-gfp provirus pool in Jurkat T cells; type: cell-based, human; details: four weeks after transduction with LTR-GFP (FIG. 22B)
Source text: J-Lat A1 was selected to have a silent HIV-1 LTR-driven provirus with the ability to reactivate in response to TNFα^31. The unique provirus within a clone such as J-Lat A1 may be sensitive to position-dependent silencing effects and therefore may not accurately reflect the sensitivity of a population of HIV-1 proviruses to transcriptional activation by Vpx or to silencing by FAM208A. To address the effect of Vpx and FAM208A on a population of proviruses with diverse integration sites, Jurkat T cells were transduced with an HIV-1 LTR driven reporter vector (LTR-gfp) that retains complete LTRs, tat, and rev, but has a frameshift mutation in env, an ngfr reporter gene in place of nef, and gfp in place of gag, pol, vif, and vpr (FIG. 18D). Four weeks after transduction with LTR-GFP, the presence of latent proviruses within the pool of Jurkat cells was confirmed by reactivation with either TNFα or TCR-stimulation (FIG. 22B). […] Compared with control cells, vpx or FAM208A knockdown increased the percentage of GFP cells, whether cells were treated with TNFα or not (FIGS. 18E and 18F). […] Additionally, expression vectors for SIVMND25440 Vpx, SIVRCM02CM8081 Vpx, SIVMND1GB1 Vpr, or […]1 Vpr all increased GFP expression in Jurkat LTR-gfp cells (FIG. 22C). […]
Cells were fixed in BD Cytofix Buffer prior to data acquisition on a BD C6 Accuri. Data was analyzed in FlowJo.

Chain of HA-tagged FAM208A (Q9UK61 whole entry): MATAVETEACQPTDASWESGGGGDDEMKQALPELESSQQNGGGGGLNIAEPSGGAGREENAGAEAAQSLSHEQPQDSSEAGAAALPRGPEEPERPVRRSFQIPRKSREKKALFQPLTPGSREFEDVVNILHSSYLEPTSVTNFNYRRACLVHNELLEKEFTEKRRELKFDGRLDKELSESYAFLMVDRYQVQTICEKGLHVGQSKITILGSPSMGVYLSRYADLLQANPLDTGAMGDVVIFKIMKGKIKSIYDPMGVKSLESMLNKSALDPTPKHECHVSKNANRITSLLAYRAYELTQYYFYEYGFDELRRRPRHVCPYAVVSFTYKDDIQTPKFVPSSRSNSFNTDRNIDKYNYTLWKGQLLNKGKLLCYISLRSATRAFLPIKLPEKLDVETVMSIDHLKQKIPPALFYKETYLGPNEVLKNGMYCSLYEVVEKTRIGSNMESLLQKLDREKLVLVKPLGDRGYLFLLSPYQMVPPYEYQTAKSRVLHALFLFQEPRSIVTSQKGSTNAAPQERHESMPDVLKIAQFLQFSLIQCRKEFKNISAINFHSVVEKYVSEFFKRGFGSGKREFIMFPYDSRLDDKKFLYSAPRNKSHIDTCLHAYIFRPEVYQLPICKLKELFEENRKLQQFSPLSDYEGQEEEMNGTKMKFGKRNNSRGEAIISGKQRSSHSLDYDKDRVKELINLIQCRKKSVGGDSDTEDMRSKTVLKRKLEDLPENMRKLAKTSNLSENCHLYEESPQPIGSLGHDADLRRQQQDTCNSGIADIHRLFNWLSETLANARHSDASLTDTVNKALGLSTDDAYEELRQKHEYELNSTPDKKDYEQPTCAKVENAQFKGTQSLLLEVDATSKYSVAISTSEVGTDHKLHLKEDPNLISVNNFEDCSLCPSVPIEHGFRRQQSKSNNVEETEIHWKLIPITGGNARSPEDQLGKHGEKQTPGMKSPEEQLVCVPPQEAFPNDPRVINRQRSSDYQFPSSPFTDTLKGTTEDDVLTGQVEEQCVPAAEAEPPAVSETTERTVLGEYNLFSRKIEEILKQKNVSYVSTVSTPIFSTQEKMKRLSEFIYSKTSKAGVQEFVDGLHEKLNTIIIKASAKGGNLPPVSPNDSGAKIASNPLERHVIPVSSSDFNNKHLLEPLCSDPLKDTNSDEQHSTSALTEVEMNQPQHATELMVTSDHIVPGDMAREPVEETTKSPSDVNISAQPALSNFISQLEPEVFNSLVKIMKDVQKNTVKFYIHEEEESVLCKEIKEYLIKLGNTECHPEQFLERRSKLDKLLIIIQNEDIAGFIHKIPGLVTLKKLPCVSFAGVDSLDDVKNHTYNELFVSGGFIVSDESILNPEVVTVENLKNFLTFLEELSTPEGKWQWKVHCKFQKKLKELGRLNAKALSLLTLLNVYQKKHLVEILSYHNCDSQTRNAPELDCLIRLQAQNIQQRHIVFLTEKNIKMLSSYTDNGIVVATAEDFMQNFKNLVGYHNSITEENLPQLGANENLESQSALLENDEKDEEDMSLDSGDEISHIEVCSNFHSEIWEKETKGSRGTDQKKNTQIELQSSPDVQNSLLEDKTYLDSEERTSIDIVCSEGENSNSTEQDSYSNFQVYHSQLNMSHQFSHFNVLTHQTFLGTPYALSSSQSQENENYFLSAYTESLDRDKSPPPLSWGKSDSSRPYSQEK

Compound | strength of the FAM208A signal in the Vpx pull-out (HA-tagged FAM208A) | reactivation of latent proviruses (Jurkat LTR-gfp cells)
CC(C)C[C@H](NC(=O)[C@H](CCc1ccccc1)NC(=O)CN1CCOCC1)C(=O)N[C@@H](Cc1ccccc1)C(=O)N[C@@H](CC(C)C)C(=O)[C@@]1(C)CO1 [PR171] | increased | –
TNFα | – | reactivation
